Measured values as given in ChEMBL document CHEMBL1201862, “PubChem BioAssay data set” (2004).
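Protocol summary: plate cells (96-well), add compound at 5 concentrations, incubate 48 h, interpolate endpoints linearly. GI50 marks 50% less growth.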 Activity calls are given as the source filed them. No stated cut-off is given here; in the data, active = GI50 up to about 1.1 µM and inactive = higher.

What was measured:
Assay in all cases: DTP human tumour cell line panel, 48 h
[1] = tested on: ACHN
[2] = tested on: BT-549
[3] = tested on: CAKI-1
[4] = tested on: HCT-116
[5] = tested on: HT-29
[6] = tested on: IGROV-1
[7] = tested on: K562
[8] = tested on: MDA-MB-435
[9] = tested on: NCI-H226
[10] = tested on: NCI-H23
[11] = tested on: NCI-H460
[12] = tested on: NCI-H522
[13] = tested on: OVCAR-3
[14] = tested on: PC-3
[15] = tested on: SN12C
[16] = tested on: TK-10
[17] = tested on: UACC-257
[18] = tested on: UACC-62

Measured: GI50

O=c1c2cc(I)ccc2nc(SCc2nncs2)n1Cc1ccccc1
inactive: [1] 9.33 µM | [2] > 100 µM | [3] 2.15 µM | [4] 11.6 µM | [5] 31.8 µM | [6] 3.89 µM | [7] 16.7 µM | [8] 19.2 µM | [9] 23.8 µM | [10] 25.6 µM | [11] 7.62 µM | [12] 4.78 µM | [13] 12.3 µM | [14] 13.8 µM | [15] 23.9 µM | [16] 29.5 µM | [17] 10.5 µM | [18] 13.6 µM

NC(CC1=CS(=O)(=O)c2ccc(Cl)cc21)C(=O)O (configuration not stated)
inactive: [1] > 100 µM | [2] > 100 µM | [3] > 100 µM | [4] > 100 µM | [5] > 100 µM | [6] > 100 µM | [7] > 100 µM | [8] > 100 µM | [9] > 100 µM | [10] > 100 µM | [11] 89.9 µM | [12] > 100 µM | [13] > 100 µM | [14] > 100 µM | [15] > 100 µM | [16] > 100 µM | [17] 54.7 µM | [18] > 100 µM

O=C(O)C1C2C=CC(O2)C1C(=O)Nc1ncccn1 (configuration not stated)
inactive: [1] > 100 µM | [2] > 100 µM | [3] > 100 µM | [4] > 100 µM | [5] > 100 µM | [6] > 100 µM | [7] 97.9 µM | [8] > 100 µM | [9] > 100 µM | [10] > 100 µM | [11] > 100 µM | [12] > 100 µM | [13] > 100 µM | [14] > 100 µM | [15] > 100 µM | [16] > 100 µM | [17] > 100 µM | [18] > 100 µM

COc1ccc(C2SCC(=O)N2NC(=O)C(C)Oc2ccccc2C)cc1 (configuration not stated)
inactive: [1] 68.5 µM | [2] > 100 µM | [3] > 100 µM | [4] 57.5 µM | [5] 95.9 µM | [6] > 100 µM | [7] 41.4 µM | [8] 82.8 µM | [9] > 100 µM | [10] 55.6 µM | [11] > 100 µM | [12] 56.6 µM | [13] > 100 µM | [14] > 100 µM | [15] 87.7 µM | [16] > 100 µM | [17] > 100 µM | [18] 80.2 µM

O=C(O)CCCCn1ccc(=O)[nH]c1=O
inactive: [1] > 100 µM | [2] > 100 µM | [3] > 100 µM | [4] > 100 µM | [5] > 100 µM | [6] > 100 µM | [7] > 100 µM | [8] > 100 µM | [9] > 100 µM | [10] > 100 µM | [11] > 100 µM | [12] > 100 µM | [13] > 100 µM | [14] > 100 µM | [15] > 100 µM | [16] > 100 µM | [17] > 100 µM | [18] > 100 µM

C=C1C[C@@H](O)[C@@H](Br)C(C)(C)[C@]12CCC(C)(Br)C(Cl)C2 (some centres not stated)
active: [14] 0.8 µM
inactive: [1] > 50 µM | [2] > 50 µM | [3] > 50 µM | [4] > 50 µM | [5] 6.1 µM | [6] > 50 µM | [7] > 50 µM | [8] > 50 µM | [9] 41.3 µM | [10] > 50 µM | [11] > 50 µM | [12] > 50 µM | [13] > 50 µM | [15] > 50 µM | [16] > 50 µM | [17] > 50 µM | [18] > 50 µM

N#Cc1nc(-c2cccs2)oc1N
inactive: [1] > 100 µM | [2] > 100 µM | [3] 3.09 µM | [4] > 100 µM | [5] > 100 µM | [6] > 100 µM | [7] > 100 µM | [8] > 100 µM | [9] > 100 µM | [10] > 100 µM | [11] > 100 µM | [12] 18.5 µM | [13] > 100 µM | [14] > 100 µM | [15] > 100 µM | [16] > 100 µM | [17] > 100 µM | [18] > 100 µM

CN1C2CCC1CN(CCOC(c1ccc(F)cc1)c1ccc(F)cc1)C2
inactive: [1] 40.6 µM | [2] 43.4 µM | [3] 45.8 µM | [4] 17.8 µM | [5] 19.5 µM | [6] 36.1 µM | [7] 20 µM | [8] 23.4 µM | [9] 32.3 µM | [10] 69.7 µM | [11] 20.9 µM | [12] 43.6 µM | [13] 47.1 µM | [14] 28.6 µM | [15] 47.9 µM | [16] > 100 µM | [17] 19.1 µM

O=C(N/N=C(\c1ccccc1)c1ccccn1)NC1CCCCC1
inactive: [1] 44.6 µM | [2] 42.4 µM | [3] 57 µM | [4] 55.6 µM | [5] 59.2 µM | [6] 30.6 µM | [7] 5.46 µM | [8] > 100 µM | [9] 41.1 µM | [10] 47.9 µM | [11] 48 µM | [12] 47.4 µM | [13] 39.6 µM | [14] 56.2 µM | [15] 56.5 µM | [16] 26.9 µM | [17] > 100 µM | [18] 38.2 µM

Cc1ccc(/C=N/Nc2cnccn2)s1
inactive: [1] > 100 µM | [2] > 100 µM | [3] > 100 µM | [4] > 100 µM | [5] 47.1 µM | [6] > 100 µM | [7] 65.2 µM | [8] > 100 µM | [9] 38.7 µM | [10] > 100 µM | [12] 83 µM | [13] > 100 µM | [14] > 100 µM | [15] 42.6 µM | [16] > 100 µM | [17] > 100 µM | [18] > 100 µM

COc1ccc(/C=C2\N=C(c3ccccc3)N(C3Nc4cc5c(cc4S3)NC(N3C(=O)/C(=C/c4ccc(OC)cc4)N=C3c3ccccc3)S5)C2=O)cc1 (configuration not stated)
inactive: [1] 90.4 µM | [2] 23.3 µM | [3] > 100 µM | [4] 42.3 µM | [5] 46.2 µM | [6] > 100 µM | [7] 58.2 µM | [8] 56.6 µM | [9] 60.1 µM | [10] 42.9 µM | [11] 12.7 µM | [12] 18.1 µM | [13] 43.6 µM | [14] 83.6 µM | [16] > 100 µM | [17] > 100 µM

Cc1ccccc1/N=N/c1ccc(/N=N/c2c(O)ccc3ccccc23)c(C)c1 [SCARLET RED]
inactive: [1] > 100 µM | [2] > 100 µM | [3] > 100 µM | [4] > 100 µM | [5] > 100 µM | [6] > 100 µM | [7] > 100 µM | [8] > 100 µM | [9] > 100 µM | [10] > 100 µM | [12] > 100 µM | [13] > 100 µM | [14] > 100 µM | [15] > 100 µM | [16] > 100 µM | [17] > 100 µM | [18] > 100 µM

CC(C)[C@H]1NC(=O)[C@H]2N=C(O[C@@H]2C)[C@@H]2CCCN2C(=O)[C@H](Cc2ccccc2)NC(=O)[C@@H]2COC(=N2)[C@@H](Cc2ccccc2)NC(=O)[C@@H]2COC1=N2
inactive: [1] > 100 µM | [2] > 100 µM | [3] > 100 µM | [4] > 100 µM | [5] > 100 µM | [6] > 100 µM | [7] > 100 µM | [8] > 100 µM | [9] > 100 µM | [10] > 100 µM | [12] > 100 µM | [13] > 100 µM | [14] > 100 µM | [15] > 100 µM | [16] > 100 µM | [17] > 100 µM | [18] > 100 µM

CCOC(=O)CCNC(=O)c1cc(C)cc2c1Oc1c(cc(C)cc1C(=O)NCCC(=O)OCC)S2
inactive: [1] > 100 µM | [2] 68.7 µM | [3] 65.6 µM | [4] 24.9 µM | [5] > 100 µM | [6] > 100 µM | [7] > 100 µM | [8] > 100 µM | [9] 81.7 µM | [10] > 100 µM | [12] 40.6 µM | [13] > 100 µM | [14] > 100 µM | [15] > 100 µM | [16] 42.3 µM | [17] 79.6 µM | [18] 38.5 µM

CCC(C#N)N(Cc1cccc(CN(C(C)=O)C(C#N)CC)c1)C(C)=O (configuration not stated)
inactive: [1] > 100 µM | [2] > 100 µM | [3] > 100 µM | [4] > 100 µM | [5] 7.57 µM | [6] > 100 µM | [7] > 100 µM | [8] > 100 µM | [9] 44.5 µM | [10] > 100 µM | [12] > 100 µM | [13] > 100 µM | [14] > 100 µM | [15] > 100 µM | [16] > 100 µM | [17] > 100 µM | [18] > 100 µM
